{
  "source": "the supplement of paper PMC10307832",
  "experiment_in_all_cases": "relative viability (nuclei count vs DMSO), 5 days (fraction); higher = more cells survive",
  "key": {"[1]": {"tested_on": "201T", "in_short": "(§1)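 Lung cancer cell lines in 1536-well plates got either a single drug or a fixed anchor-drug dose together with five library-drug doses (not always all listed) in √10 steps, by pin tool, on the day after seeding. Nuclei were counted after 5 days, and relative viability is the treated-to-vehicle ratio of nuclei counts. Values are medians of duplicate plates.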"}, "[2]": {"tested_on": "ABC-1", "in_short": "as §1"}, "[3]": {"tested_on": "BEN", "in_short": "as §1"}, "[4]": {"tested_on": "CAL-12T", "in_short": "as §1"}, "[5]": {"tested_on": "H3255", "in_short": "as §1"}, "[6]": {"tested_on": "HARA", "in_short": "as §1"}, "[7]": {"tested_on": "HCC-15", "in_short": "as §1"}, "[8]": {"tested_on": "HCC-827", "in_short": "as §1"}, "[9]": {"tested_on": "LC-2-ad", "in_short": "as §1"}, "[10]": {"tested_on": "LCLC-103H", "in_short": "as §1"}, "[11]": {"tested_on": "LOU-NH91", "in_short": "as §1"}, "[12]": {"tested_on": "LU99A", "in_short": "as §1"}, "[13]": {"tested_on": "NCI-H1355", "in_short": "as §1"}, "[14]": {"tested_on": "NCI-H1666", "in_short": "as §1"}, "[15]": {"tested_on": "NCI-H1755", "in_short": "as §1"}, "[16]": {"tested_on": "NCI-H1993", "in_short": "as §1"}, "[17]": {"tested_on": "NCI-H2085", "in_short": "as §1"}, "[18]": {"tested_on": "NCI-H2170", "in_short": "as §1"}, "[19]": {"tested_on": "NCI-H2228", "in_short": "as §1"}, "[20]": {"tested_on": "NCI-H2342", "in_short": "as §1"}, "[21]": {"tested_on": "NCI-H23", "in_short": "as §1"}, "[22]": {"tested_on": "NCI-H727", "in_short": "as §1"}, "[23]": {"tested_on": "PC-3 [JPC-3]", "in_short": "as §1"}, "[24]": {"tested_on": "RERF-LC-KJ", "in_short": "as §1"}, "[25]": {"tested_on": "SK-LU-1", "in_short": "as §1"}},
  "data": [
    {"compound": "Nc1cccc2c1CN(C1CCC(=O)NC1=O)C2=O", "note": "(stereo not drawn) [Lenalidomide] + O=C(c1cc(Cc2n[nH]c(=O)c3ccccc23)ccc1F)N1CCN(C(=O)C2CC2)CC1 [Olaparib] (partner 8 µM)", "values": [
      {"measurement": "relative viability", "setting": "[1]; first compound 0.253 µM", "result": 0.847},
      {"measurement": "relative viability", "setting": "[1]; first compound 0.8 µM", "result": 0.865},
      {"measurement": "relative viability", "setting": "[1]; first compound 2.53 µM", "result": 0.864},
      {"measurement": "relative viability", "setting": "[1]; first compound 8 µM", "result": 0.92},
      {"measurement": "relative viability", "setting": "[2]; first compound 0.253 µM", "result": 0.654},
      {"measurement": "relative viability", "setting": "[2]; first compound 0.8 µM", "result": 0.764},
      {"measurement": "relative viability", "setting": "[2]; first compound 2.53 µM", "result": 0.861},
      {"measurement": "relative viability", "setting": "[2]; first compound 8 µM", "result": 1.03},
      {"measurement": "relative viability", "setting": "[3]; first compound 0.253 µM", "result": 1.07},
      {"measurement": "relative viability", "setting": "[3]; first compound 0.8 µM", "result": 1.2},
      {"measurement": "relative viability", "setting": "[3]; first compound 2.53 µM", "result": 1.08},
      {"measurement": "relative viability", "setting": "[3]; first compound 8 µM", "result": 1.08},
      {"measurement": "relative viability", "setting": "[4]; first compound 0.253 µM", "result": 0.807},
      {"measurement": "relative viability", "setting": "[4]; first compound 0.8 µM", "result": 0.729},
      {"measurement": "relative viability", "setting": "[4]; first compound 2.53 µM", "result": 0.757},
      {"measurement": "relative viability", "setting": "[4]; first compound 8 µM", "result": 0.941},
      {"measurement": "relative viability", "setting": "[5]; first compound 0.253 µM", "result": 0.556},
      {"measurement": "relative viability", "setting": "[5]; first compound 0.8 µM", "result": 0.579},
      {"measurement": "relative viability", "setting": "[5]; first compound 2.53 µM", "result": 0.602},
      {"measurement": "relative viability", "setting": "[5]; first compound 8 µM", "result": 0.614},
      {"measurement": "relative viability", "setting": "[6]; first compound 0.253 µM", "result": 0.925},
      {"measurement": "relative viability", "setting": "[6]; first compound 2.53 µM", "result": 0.804},
      {"measurement": "relative viability", "setting": "[6]; first compound 8 µM", "result": 1.01},
      {"measurement": "relative viability", "setting": "[7]; first compound 0.253 µM", "result": 0.686},
      {"measurement": "relative viability", "setting": "[7]; first compound 0.8 µM", "result": 0.728},
      {"measurement": "relative viability", "setting": "[7]; first compound 2.53 µM", "result": 0.819},
      {"measurement": "relative viability", "setting": "[7]; first compound 8 µM", "result": 0.706},
      {"measurement": "relative viability", "setting": "[8]; first compound 0.253 µM", "result": 0.633},
      {"measurement": "relative viability", "setting": "[8]; first compound 0.8 µM", "result": 0.57},
      {"measurement": "relative viability", "setting": "[8]; first compound 2.53 µM", "result": 0.668},
      {"measurement": "relative viability", "setting": "[8]; first compound 8 µM", "result": 0.612},
      {"measurement": "relative viability", "setting": "[9]; first compound 0.253 µM", "result": 0.359},
      {"measurement": "relative viability", "setting": "[9]; first compound 0.8 µM", "result": 0.716},
      {"measurement": "relative viability", "setting": "[9]; first compound 2.53 µM", "result": 0.777},
      {"measurement": "relative viability", "setting": "[9]; first compound 8 µM", "result": 0.782},
      {"measurement": "relative viability", "setting": "[10]; first compound 0.253 µM", "result": 0.718},
      {"measurement": "relative viability", "setting": "[10]; first compound 0.8 µM", "result": 0.667},
      {"measurement": "relative viability", "setting": "[10]; first compound 2.53 µM", "result": 0.76},
      {"measurement": "relative viability", "setting": "[10]; first compound 8 µM", "result": 0.741},
      {"measurement": "relative viability", "setting": "[11]; first compound 0.253 µM", "result": 0.934},
      {"measurement": "relative viability", "setting": "[11]; first compound 0.8 µM", "result": 0.948},
      {"measurement": "relative viability", "setting": "[11]; first compound 2.53 µM", "result": 0.906},
      {"measurement": "relative viability", "setting": "[11]; first compound 8 µM", "result": 0.898},
      {"measurement": "relative viability", "setting": "[12]; first compound 0.253 µM", "result": 0.261},
      {"measurement": "relative viability", "setting": "[12]; first compound 0.8 µM", "result": 0.283},
      {"measurement": "relative viability", "setting": "[12]; first compound 2.53 µM", "result": 0.243},
      {"measurement": "relative viability", "setting": "[12]; first compound 8 µM", "result": 0.246},
      {"measurement": "relative viability", "setting": "[13]; first compound 0.253 µM", "result": 0.756},
      {"measurement": "relative viability", "setting": "[13]; first compound 0.8 µM", "result": 0.5},
      {"measurement": "relative viability", "setting": "[13]; first compound 2.53 µM", "result": 0.857},
      {"measurement": "relative viability", "setting": "[13]; first compound 8 µM", "result": 0.709},
      {"measurement": "relative viability", "setting": "[14]; first compound 0.253 µM", "result": 0.781},
      {"measurement": "relative viability", "setting": "[14]; first compound 0.8 µM", "result": 0.717},
      {"measurement": "relative viability", "setting": "[14]; first compound 2.53 µM", "result": 0.776},
      {"measurement": "relative viability", "setting": "[14]; first compound 8 µM", "result": 0.759},
      {"measurement": "relative viability", "setting": "[15]; first compound 0.253 µM", "result": 0.86},
      {"measurement": "relative viability", "setting": "[15]; first compound 0.8 µM", "result": 0.861},
      {"measurement": "relative viability", "setting": "[15]; first compound 2.53 µM", "result": 0.899},
      {"measurement": "relative viability", "setting": "[15]; first compound 8 µM", "result": 0.777},
      {"measurement": "relative viability", "setting": "[16]; first compound 0.253 µM", "result": 0.897},
      {"measurement": "relative viability", "setting": "[16]; first compound 0.8 µM", "result": 1.42},
      {"measurement": "relative viability", "setting": "[16]; first compound 2.53 µM", "result": 1.09},
      {"measurement": "relative viability", "setting": "[16]; first compound 8 µM", "result": 0.889},
      {"measurement": "relative viability", "setting": "[17]; first compound 0.253 µM", "result": 0.793},
      {"measurement": "relative viability", "setting": "[17]; first compound 0.8 µM", "result": 0.796},
      {"measurement": "relative viability", "setting": "[17]; first compound 2.53 µM", "result": 0.841},
      {"measurement": "relative viability", "setting": "[17]; first compound 8 µM", "result": 0.752},
      {"measurement": "relative viability", "setting": "[18]; first compound 0.253 µM", "result": 0.57},
      {"measurement": "relative viability", "setting": "[18]; first compound 0.8 µM", "result": 0.611},
      {"measurement": "relative viability", "setting": "[18]; first compound 2.53 µM", "result": 0.67},
      {"measurement": "relative viability", "setting": "[18]; first compound 8 µM", "result": 0.553},
      {"measurement": "relative viability", "setting": "[19]; first compound 0.253 µM", "result": 0.544},
      {"measurement": "relative viability", "setting": "[19]; first compound 0.8 µM", "result": 0.502},
      {"measurement": "relative viability", "setting": "[19]; first compound 2.53 µM", "result": 0.753},
      {"measurement": "relative viability", "setting": "[19]; first compound 8 µM", "result": 0.583},
      {"measurement": "relative viability", "setting": "[20]; first compound 0.253 µM", "result": 0.464},
      {"measurement": "relative viability", "setting": "[20]; first compound 0.8 µM", "result": 0.415},
      {"measurement": "relative viability", "setting": "[20]; first compound 2.53 µM", "result": 0.437},
      {"measurement": "relative viability", "setting": "[20]; first compound 8 µM", "result": 0.399},
      {"measurement": "relative viability", "setting": "[21]; first compound 0.253 µM", "result": 0.289},
      {"measurement": "relative viability", "setting": "[21]; first compound 2.53 µM", "result": 0.3},
      {"measurement": "relative viability", "setting": "[21]; first compound 8 µM", "result": 0.367},
      {"measurement": "relative viability", "setting": "[22]; first compound 0.253 µM", "result": 0.732},
      {"measurement": "relative viability", "setting": "[22]; first compound 0.8 µM", "result": 0.706},
      {"measurement": "relative viability", "setting": "[22]; first compound 2.53 µM", "result": 0.633},
      {"measurement": "relative viability", "setting": "[22]; first compound 8 µM", "result": 0.7},
      {"measurement": "relative viability", "setting": "[23]; first compound 0.253 µM", "result": 1.12},
      {"measurement": "relative viability", "setting": "[23]; first compound 0.8 µM", "result": 1.1},
      {"measurement": "relative viability", "setting": "[23]; first compound 2.53 µM", "result": 1.32},
      {"measurement": "relative viability", "setting": "[23]; first compound 8 µM", "result": 1.38},
      {"measurement": "relative viability", "setting": "[24]; first compound 0.253 µM", "result": 0.812},
      {"measurement": "relative viability", "setting": "[24]; first compound 0.8 µM", "result": 0.704},
      {"measurement": "relative viability", "setting": "[24]; first compound 2.53 µM", "result": 0.884},
      {"measurement": "relative viability", "setting": "[24]; first compound 8 µM", "result": 1.05},
      {"measurement": "relative viability", "setting": "[25]; first compound 0.253 µM", "result": 0.409},
      {"measurement": "relative viability", "setting": "[25]; first compound 0.8 µM", "result": 0.542},
      {"measurement": "relative viability", "setting": "[25]; first compound 2.53 µM", "result": 0.615},
      {"measurement": "relative viability", "setting": "[25]; first compound 8 µM", "result": 0.392}
    ]}
  ]
}
